Tests used:
LFA-1 = molecular target: T1, LFA-1 (Homo sapiens, UniProt P05107+P20701); experiment: Static cell adhesion assay, HSB cells on ICAM-1 (αLβ2/ICAM-1; LFA-1); assay type: cell-based; details: Dose 3 μM, compound and THI0349 at the same concentration; ratio >1 = more potent agonist
T1 construct: The Jurkat (VCAM-1 assays) and HSB (ICAM-1 assays) cell lines were obtained from American Type Culture Collection; endogenous in cells; host or cells: HSB cells (ATCC)
Procedure: (§1) For in vitro cell adhesion assays, compounds were dissolved in DMSO to make a series of stock solutions such that a 1:100 dilution in assay buffer would yield the desired final working concentrations in 1% DMSO (vehicle). Human VCAM-1 and ICAM-1 were purchased from R&D Systems (Minneapolis, MN). The Jurkat (VCAM-1 assays) and HSB (ICAM-1 assays) cell lines were obtained from American Type Culture Collection (Manassas, VA) and were maintained in recommended culture media.
(§2) Assays were performed as previously described in 1. Vanderslice, P., Woodside, D. G., Caivano, A. R., Decker, E. R., Munsch, C. L., Sherwood, S. J., Lejeune, W. S., Miyamoto, Y. J., McIntyre, B. W., Tilton, R. G., and Dixon, R. A. (2010) Potent in vivo suppression of inflammation by selectively targeting the high affinity conformation of integrin alpha4beta1. Biochem Biophys Res Commun 400, 619-624; and 2. Vanderslice, P., Biediger, R. J., Woodside, D. G., Brown, W. S., Khounlo, S., Warier, N. D., Gundlach, C. W. t., Caivano, A. R., Bornmann, W. G., Maxwell, D. S., McIntyre, B. W., Willerson, J. T., and Dixon, R. A. (2013) Small molecule agonist of very late antigen-4 (VLA-4) integrin induces progenitor cell adhesion. J Biol Chem 288, 19414-19428. VCAM-1 or ICAM-1 ligand in 50 μL of 50 mM Tris-HCl (pH 7.4), 150 mM NaCl, (TBS) was added to wells of a 96-well plate and allowed to coat overnight at 4° C. To maximize the window to evaluate agonist activity, a sub-optimal coating concentration of ligand was used, typically between 0.5 and 5 μg/mL in 50 μL TBS for VCAM-1 and ICAM-1 respectively. This ligand concentration corresponded approximately to that which would yield≤ 5% adhesion as determined by dose-response curves. Briefly, 2×10^6 cells were labeled for 30 minutes with calcein-AM (Molecular Probes), washed, resuspended in binding buffer, and added to triplicate wells of ligand-coated plates (2×10^5 cells/well) that had been blocked with 2% BSA. After a 30-minute incubation at 37° C., the plates were washed 3 times with binding buffer, the adherent cells were lysed, and fluorescence was measured on a Tecan Safire^2 plate reader. The binding buffer was PBS with 1 mM MgCl2, 50% FBS for α4β1/VCAM-1 assays and PBS with 2 mM MgCl2, 5 mM EGTA, 50% FBS for αLβ2/ICAM-1 assays. EC50 is defined as the concentration of compound required to achieve 50% of the maximal response.
THI0019 and THI0349 (average 11 μM) reported values here were obtained under the assay conditions reported herein and ran higher in the presence of serum than those values under different assay conditions. […] Relative to THI0019 (average 33 μM) as a control against CS1, the ratio of (compound activity/control) is as follows: Group I< or =1. Group II at least a ratio of >1 up to 2× that of THI0019 ran on the same plate; Group III is >2× of THI0019 but less than 5×; and Group IV>5× of THI0019 (with an upper limit of approximately 200 mM). In relation to LAD (Leukocyte Adhesion Deficiency), LFA-1 ratios are determined by dividing the relative fluorescence units (RFU) of each compound over that of the reference standard of THI0349, (RFU Compound/RFU of THI0349). Against LFA-1, the signal for THI0349 at 3 μM was compared to the claimed compounds at the same concentration.

α4β1/VCAM-1 = molecular target: T2, α4β1/VCAM-1 (Homo sapiens, UniProt P05556+P13612); experiment: Static cell adhesion assay, Jurkat cells on VCAM-1 (α4β1/VCAM-1); assay type: cell-based; details: ratio compound activity/control THI0019 (average 33 μM) run on the same plate
T2 construct: The Jurkat (VCAM-1 assays) and HSB (ICAM-1 assays) cell lines were obtained from American Type Culture Collection; endogenous in cells; host or cells: Jurkat cells (ATCC)
T2 sequence (P13612 34-1032): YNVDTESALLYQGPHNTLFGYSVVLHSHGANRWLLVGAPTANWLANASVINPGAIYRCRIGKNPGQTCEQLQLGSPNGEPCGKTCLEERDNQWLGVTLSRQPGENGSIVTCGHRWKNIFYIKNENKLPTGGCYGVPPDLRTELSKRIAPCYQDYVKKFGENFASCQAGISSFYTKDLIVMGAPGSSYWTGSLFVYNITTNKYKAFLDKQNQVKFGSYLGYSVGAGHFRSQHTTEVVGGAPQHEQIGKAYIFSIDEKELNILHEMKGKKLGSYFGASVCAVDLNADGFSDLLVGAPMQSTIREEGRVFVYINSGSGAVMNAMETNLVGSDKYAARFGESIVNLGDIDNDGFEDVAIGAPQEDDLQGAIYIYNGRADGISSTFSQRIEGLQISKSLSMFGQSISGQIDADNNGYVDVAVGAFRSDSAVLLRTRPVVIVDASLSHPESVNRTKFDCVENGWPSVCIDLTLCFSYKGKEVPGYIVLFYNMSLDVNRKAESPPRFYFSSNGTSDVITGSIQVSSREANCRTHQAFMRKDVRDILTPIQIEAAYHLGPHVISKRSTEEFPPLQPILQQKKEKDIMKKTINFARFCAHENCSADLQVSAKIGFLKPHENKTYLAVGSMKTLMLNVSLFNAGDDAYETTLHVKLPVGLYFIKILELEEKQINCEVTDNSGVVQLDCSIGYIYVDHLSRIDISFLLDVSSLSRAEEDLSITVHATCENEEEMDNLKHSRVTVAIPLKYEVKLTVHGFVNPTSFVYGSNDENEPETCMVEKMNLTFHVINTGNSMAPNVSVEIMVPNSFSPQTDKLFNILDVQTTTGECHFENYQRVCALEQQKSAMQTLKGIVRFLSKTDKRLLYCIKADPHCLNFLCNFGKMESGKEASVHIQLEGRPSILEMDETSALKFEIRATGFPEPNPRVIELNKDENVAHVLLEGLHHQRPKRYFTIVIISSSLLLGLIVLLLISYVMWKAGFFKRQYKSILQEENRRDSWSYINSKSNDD
T2 sequence (P05556 21-798): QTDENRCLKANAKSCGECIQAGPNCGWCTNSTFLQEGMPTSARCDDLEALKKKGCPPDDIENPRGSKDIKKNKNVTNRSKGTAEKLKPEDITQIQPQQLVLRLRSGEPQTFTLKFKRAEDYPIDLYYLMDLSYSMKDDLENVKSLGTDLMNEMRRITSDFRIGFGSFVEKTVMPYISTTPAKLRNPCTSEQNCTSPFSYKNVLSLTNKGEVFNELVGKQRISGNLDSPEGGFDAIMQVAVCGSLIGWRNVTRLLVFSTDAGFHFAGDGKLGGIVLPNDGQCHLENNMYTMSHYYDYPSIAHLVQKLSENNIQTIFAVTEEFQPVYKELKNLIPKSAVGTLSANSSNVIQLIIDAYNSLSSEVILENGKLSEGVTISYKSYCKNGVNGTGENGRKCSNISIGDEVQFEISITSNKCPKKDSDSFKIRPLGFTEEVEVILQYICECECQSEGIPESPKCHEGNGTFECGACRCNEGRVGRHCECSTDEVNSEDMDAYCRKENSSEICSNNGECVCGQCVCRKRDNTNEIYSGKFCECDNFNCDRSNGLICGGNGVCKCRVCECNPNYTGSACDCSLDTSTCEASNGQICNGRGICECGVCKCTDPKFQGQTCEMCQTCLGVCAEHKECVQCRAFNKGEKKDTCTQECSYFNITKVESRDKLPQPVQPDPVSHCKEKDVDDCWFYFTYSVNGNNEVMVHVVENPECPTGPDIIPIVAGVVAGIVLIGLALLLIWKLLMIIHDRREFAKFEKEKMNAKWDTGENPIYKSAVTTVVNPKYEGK
Procedure: as §1, §2

T1 sequence (P20701 26-1170): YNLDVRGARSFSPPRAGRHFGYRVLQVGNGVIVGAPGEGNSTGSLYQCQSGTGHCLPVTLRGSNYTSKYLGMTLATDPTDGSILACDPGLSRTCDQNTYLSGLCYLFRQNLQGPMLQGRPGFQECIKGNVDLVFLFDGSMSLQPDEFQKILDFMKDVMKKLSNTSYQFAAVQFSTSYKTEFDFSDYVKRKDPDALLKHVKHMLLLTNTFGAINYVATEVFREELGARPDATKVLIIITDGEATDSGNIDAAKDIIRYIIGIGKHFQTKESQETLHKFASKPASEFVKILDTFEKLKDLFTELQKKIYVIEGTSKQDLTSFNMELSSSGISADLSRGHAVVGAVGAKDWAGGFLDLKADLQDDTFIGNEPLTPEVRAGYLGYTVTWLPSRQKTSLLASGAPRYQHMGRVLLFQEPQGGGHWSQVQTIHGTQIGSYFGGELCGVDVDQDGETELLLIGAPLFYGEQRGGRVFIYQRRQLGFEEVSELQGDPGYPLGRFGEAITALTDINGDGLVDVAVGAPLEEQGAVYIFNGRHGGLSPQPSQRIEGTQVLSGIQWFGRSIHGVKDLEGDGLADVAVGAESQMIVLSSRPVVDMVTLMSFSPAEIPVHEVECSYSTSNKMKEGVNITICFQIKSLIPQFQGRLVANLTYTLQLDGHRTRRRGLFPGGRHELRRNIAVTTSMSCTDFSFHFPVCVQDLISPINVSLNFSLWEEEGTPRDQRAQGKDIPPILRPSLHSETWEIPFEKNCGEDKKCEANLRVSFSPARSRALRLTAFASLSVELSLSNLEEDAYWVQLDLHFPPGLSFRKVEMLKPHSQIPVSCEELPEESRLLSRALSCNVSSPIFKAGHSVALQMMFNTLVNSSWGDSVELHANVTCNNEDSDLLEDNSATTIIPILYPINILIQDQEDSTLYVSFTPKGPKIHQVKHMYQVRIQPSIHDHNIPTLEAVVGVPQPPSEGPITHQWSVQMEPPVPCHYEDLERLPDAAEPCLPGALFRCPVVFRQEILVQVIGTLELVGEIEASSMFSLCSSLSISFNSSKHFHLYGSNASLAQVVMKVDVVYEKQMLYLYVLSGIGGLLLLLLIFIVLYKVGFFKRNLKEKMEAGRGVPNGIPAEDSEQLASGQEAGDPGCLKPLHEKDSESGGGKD
T1 sequence (P05107 23-769): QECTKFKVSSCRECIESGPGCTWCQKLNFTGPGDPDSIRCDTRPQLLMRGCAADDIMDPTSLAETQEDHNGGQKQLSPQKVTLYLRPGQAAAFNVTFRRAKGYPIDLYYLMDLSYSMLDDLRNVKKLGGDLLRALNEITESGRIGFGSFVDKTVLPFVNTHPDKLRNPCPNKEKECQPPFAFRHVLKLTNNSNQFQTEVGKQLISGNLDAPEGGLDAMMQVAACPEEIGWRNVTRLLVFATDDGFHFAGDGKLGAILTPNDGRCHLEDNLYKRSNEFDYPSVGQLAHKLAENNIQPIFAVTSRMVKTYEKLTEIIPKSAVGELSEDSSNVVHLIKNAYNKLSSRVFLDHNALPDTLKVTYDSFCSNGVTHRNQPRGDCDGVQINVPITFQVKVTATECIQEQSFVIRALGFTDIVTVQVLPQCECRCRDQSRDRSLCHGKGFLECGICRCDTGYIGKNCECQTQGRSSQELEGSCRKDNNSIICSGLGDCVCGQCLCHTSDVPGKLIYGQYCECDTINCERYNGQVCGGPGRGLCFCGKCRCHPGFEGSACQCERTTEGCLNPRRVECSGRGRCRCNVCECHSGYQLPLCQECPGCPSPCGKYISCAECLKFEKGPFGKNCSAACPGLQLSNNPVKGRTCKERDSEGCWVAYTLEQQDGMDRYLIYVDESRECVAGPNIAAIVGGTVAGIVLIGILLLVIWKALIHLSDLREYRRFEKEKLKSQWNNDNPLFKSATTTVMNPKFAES

**Q.** Which results are given for `COc1cccc(CN(Cc2cccc(OC)c2)C(=O)OCCN2CCN(CCOC(=O)N(Cc3cccc(OC)c3)Cc3cccc(OC)c3)CC2)c1` [piperazine-1,4-diylbis(ethane-2,1-diyl) bis(bis(3-methoxybenzyl)carbamate)]?
**A.** LAD Raw Fluorescence Units against LFA-1; Ratio of raw counts Compound/THI0349 (LFA-1): 4.7 fold increased response; Average Ratio Compound to THI0019 (Activity against CS1) (α4β1/VCAM-1): Group I (Group I< or =1)

**Q.** `O=C(CCCCN1CCN(C(=O)OCc2ccccc2)CC1)N(Cc1cccs1)Cc1cccs1` [benzyl 4-(5-(bis(thiophen-2-ylmethyl)amino)-5-oxopentyl)piperazine-1-carboxylate] was tested. Which “LAD Raw Fluorescence Units against LFA-1; Ratio of raw counts Compound/THI0349” value (LFA-1) did it give?
**A.** 0.9 fold response

**Q.** And the “Average Ratio Compound to THI0019 (Activity against CS1)” value (“Average Ratio Compound to THI0019” for short) (α4β1/VCAM-1)?
**A.** Group I (Group I< or =1)

**Q.** With `COc1ccc(CN(Cc2ccc(OC)cc2)C(=O)CCCN2CCN(C(=O)OCc3ccccc3)CC2)cc1` [benzyl 4-(4-(bis(4-methoxybenzyl)amino)-4-oxobutyl)piperazine-1-carboxylate] as the compound, how does the “LAD Raw Fluorescence Units against LFA-1; Ratio of raw counts Compound/THI0349” value (LFA-1) read?
**A.** 3 fold increased response

**Q.** And the “Average Ratio Compound to THI0019” value (α4β1/VCAM-1)?
**A.** Group I (Group I< or =1)

**Q.** What does the source list for `COc1ccc(CN(Cc2ccc(N(C)C)cc2)C(=O)CN2CCN(C(=O)OCc3ccccc3)CC2)cc1` [benzyl 4-(2-((4-(dimethylamino)benzyl)(4-methoxybenzyl)amino)-2-oxoethyl)piperazine-1-carboxylate]?
**A.** LAD Raw Fluorescence Units against LFA-1; Ratio of raw counts Compound/THI0349 (LFA-1): 1.2 fold increased response; Average Ratio Compound to THI0019 (Activity against CS1) (α4β1/VCAM-1): Group III (Group III is >2× of THI0019 but less than 5×)

**Q.** Which “LAD Raw Fluorescence Units against LFA-1; Ratio of raw counts Compound/THI0349” value (LFA-1) does the source give for `COc1cccc(CN(Cc2cccc(OC)c2)C(=O)CCCCN2CCN(C(=O)OCc3ccccc3)CC2)c1` [benzyl 4-(5-(bis(3-methoxybenzyl)amino)-5-oxopentyl)piperazine-1-carboxylate] here?
**A.** 3.9 fold increased response

**Q.** And the “Average Ratio Compound to THI0019” value (α4β1/VCAM-1)?
**A.** Group II (Group II at least a ratio of >1 up to 2× that of THI0019 ran on the same plate)

**Q.** What does the source list for `COc1cccc(CN(Cc2cccc(OC)c2)C(=O)CN2CCN(C(=O)OCc3ccccc3)CC2)c1` [benzyl 4-(2-(bis(3-methoxybenzyl)amino)-2-oxoethyl)piperazine-1-carboxylate]?
**A.** LAD Raw Fluorescence Units against LFA-1; Ratio of raw counts Compound/THI0349 (LFA-1): 1.42 fold increased response; Average Ratio Compound to THI0019 (Activity against CS1) (α4β1/VCAM-1): Group I (Group I< or =1)

**Q.** With `COc1ccc(CN(Cc2ccc(O)cc2)C(=O)CN2CCN(C(=O)OCc3ccccc3)CC2)cc1` [benzyl 4-(2-((4-hydroxybenzyl)(4-methoxybenzyl)amino)-2-oxoethyl)piperazine-1-carboxylate] as the compound, how does the “LAD Raw Fluorescence Units against LFA-1; Ratio of raw counts Compound/THI0349” value (LFA-1) read?
**A.** 1.3 fold increased response

**Q.** What about the “Average Ratio Compound to THI0019” value (α4β1/VCAM-1) of the same compound?
**A.** Group II (Group II at least a ratio of >1 up to 2× that of THI0019 ran on the same plate)

**Q.** For `COc1ccc(CN(Cc2ccc(N(C)C)cc2)C(=O)CN2CCN(C(=O)OCc3cccc(OC)c3)CC2=O)cc1` [3-methoxybenzyl 4-(2-((4-(dimethylamino)benzyl)(4-methoxybenzyl)amino)-2-oxoethyl)-3-oxopiperazine-1-carboxylate], which “LAD Raw Fluorescence Units against LFA-1; Ratio of raw counts Compound/THI0349” value (LFA-1) is on record?
**A.** 4.2 fold increased response

**Q.** And the “Average Ratio Compound to THI0019” value (α4β1/VCAM-1)?
**A.** Group II (Group II at least a ratio of >1 up to 2× that of THI0019 ran on the same plate)

**Q.** What does the source list for `COc1ccc(CN(Cc2ccc(OC)cc2)C(=O)CN2CCN(C(=O)OCc3cccc(OC)c3)CC2)cc1` [3-methoxybenzyl 4-(2-(bis(4-methoxybenzyl)amino)-2-oxoethyl)piperazine-1-carboxylate]?
**A.** LAD Raw Fluorescence Units against LFA-1; Ratio of raw counts Compound/THI0349 (LFA-1): 2.2 fold increased response; Average Ratio Compound to THI0019 (Activity against CS1) (α4β1/VCAM-1): Group II (Group II at least a ratio of >1 up to 2× that of THI0019 ran on the same plate)

From patent publication US20250099423A1, “PIPERAZINE-BASED AGONISTS OF LFA-1 AND VLA-4” (Texas Heart Institute, priority 2021, published 2025)
